From ChEMBL document CHEMBL3045416, “Synthesis and biological evaluation of new curcumin derivatives as antioxidant and antitumor agents” (Med Chem Res, 2013)

Assays:
[1] = Induction of Homo sapiens (human) RBC haemolysis at 2 ug/ml by spectrophotometric anlaysis; assay type: cell-based, Erythrocyte; settings: red blood cells, read-out: Activity
[2] = Antioxidant activity assessed as inhibition of ABTS radical production at 1 mg/ml; assay type: functional
[3] = test system: MCF7; assay: Cytotoxicity against Homo sapiens (human) MCF7 cells assessed as cell viability at 20 ug/ml by trypan blue assay; assay type: functional; settings: read-out: Activity
[4] = test system: Vero; assay: Cytotoxicity against Chlorocebus aethiops (African green monkey) Vero cells assessed as cell viability at 20 ug/ml by trypan blue assay; assay type: functional; settings: Chlorocebus sabaeus, read-out: Activity
[5] = test system: WI-38; assay: Cytotoxicity against Homo sapiens (human) WI38 cells assessed as cell viability at 20 ug/ml by trypan blue assay; assay type: functional; settings: read-out: Activity
[6] = test system: HepG2; assay: Cytotoxicity against Homo sapiens (human) HepG2 cells assessed as cell viability at 20 ug/ml by trypan blue assay; assay type: functional; settings: read-out: Activity
[7] = Antihaemolysis activity in Homo sapiens (human) RBC assessed as inhibition of ABTS-induced haemolysis at 20 ug/ml incubated for 30 min prior to ABTS-challenge by spectrophotometric analysis; assay type: functional; settings: Erythrocyte
[8] = Antioxidant activity assessed as inhibition of ABTS radical production at 2 mM; assay type: functional

Row | SMILES | hemolysis at 2 ug/ml [1] [%] | inhibition [2] [%] | viability at 20 µg/mL [3] [%] | viability at 20 µg/mL [4] [%] | viability at 20 µg/mL [5] [%] | viability at 20 µg/mL [6] [%] | inhibition at 20 µg/mL [7] [%] | inhibition [8] [%]
1 | CC(C)(C(=O)/C=C/c1ccc(Cl)cc1)C(=O)/C=C/c1ccc(Cl)cc1 | 100 | 2.32 |  |  |  |  |  | 
2 | COc1ccc(/C=C2\CCCC/C(=C\c3ccc(OC)cc3)C2=O)cc1 | 100 | 1.74 |  |  |  |  |  | 
3 | COc1ccc(/C=C2\CCC/C(=C\c3ccc(OC)cc3)C2=O)cc1 | 100 | 1.35 |  |  |  |  |  | 
4 | CCOc1ccc(/C=C/C(=O)C(CC)(CC)C(=O)/C=C/c2ccc(OCC)c(OC)c2)cc1OC |  | 26.4 | 94 | 88 | 82 | 78 |  | 
5 | O=C1O[C@H]([C@@H](O)CO)C(O)=C1O [ASCORBIC ACID] |  |  |  |  |  |  | 17.6 | 80.8
6 | O=C1/C(=C/c2ccccc2)CCC/C1=C\c1ccccc1 |  | 1.93 |  |  |  |  |  | 
7 | COc1ccc(/C=C2\CCCC3=C2OC(N)=C(C#N)C3c2ccc(OC)cc2)cc1 (configuration not stated) |  | 0.38 |  |  |  |  |  | 
8 | N#CC1=C(N)OC2=C(CCC/C2=C\c2ccccc2)C1c1ccccc1 (configuration not stated) |  | 0.19 |  |  |  |  |  | 
9 | COc1ccc(OC)c(/C=C2\CCCC3=C2OC(N)=C(C#N)C3c2cc(OC)ccc2OC)c1 (configuration not stated) |  | 0.38 |  |  |  |  |  | 
10 | Clc1ccc(/C=C2\CCCC3C2=NN(c2ccc(Br)cc2)C3c2ccc(Cl)cc2)cc1 (configuration not stated) | 100 | 2.9 |  |  |  |  |  | 
11 | COc1cc(/C=C2\CCCC3=C2OC(N)=C(C#N)C3c2ccc(O)c(OC)c2)ccc1O (configuration not stated) | 100 | 57.8 | 79 | 82 | 84 | 81 |  | 
12 | Brc1ccc(N2N=C3/C(=C/c4ccccc4)CCCC3C2c2ccccc2)cc1 (configuration not stated) | 100 | 1.74 |  |  |  |  |  | 
13 | O=C1/C(=C/c2ccc(O)cc2)CCC/C1=C\c1ccc(O)cc1 | 100 | 9.49 | 74 | 84 | 77 | 88 |  | 
14 | COc1ccc(/C=C2\CCCCC3C2=NN(c2ccc(Br)cc2)C3c2ccc(OC)c(OC)c2)cc1OC (configuration not stated) | 100 |  |  |  |  |  |  | 
15 | COc1ccc(/C=C/C(=O)C(C)(C)C(=O)/C=C/c2ccc(OC)c(OC)c2)cc1OC | 100 | 12.6 | 87 | 89 | 75 | 78 |  | 
16 | CC(C)(C(=O)/C=C/c1ccc(O)cc1)C(=O)/C=C/c1ccc(O)cc1 | 100 | 28.7 | 64 | 82 | 88 | 57 |  | 
17 | COc1ccc(/C=C2\CCCC3C2=NN(c2ccc(Br)cc2)C3c2ccc(OC)c(OC)c2)cc1OC (configuration not stated) | 100 | 0.19 |  |  |  |  |  | 
18 | COc1ccc(OC)c(/C=C2\CCCCC3C2=NN(c2ccc(Br)cc2)C3c2cc(OC)ccc2OC)c1 (configuration not stated) | 100 |  |  |  |  |  |  | 
19 | COc1ccc(/C=C2\CCC/C(=C\c3ccc(OC)c(OC)c3)C2=O)cc1OC | 100 | 0 |  |  |  |  |  | 
20 | COc1ccc(/C=C2\CCCCC3C2=NN(c2ccc(Br)cc2)C3c2ccc(OC)cc2)cc1 (configuration not stated) | 100 |  |  |  |  |  |  | 

Row | SMILES | hemolysis at 2 ug/ml [1] [%] | inhibition [2] [%] | viability at 20 µg/mL [3] [%] | viability at 20 µg/mL [4] [%] | viability at 20 µg/mL [5] [%] | viability at 20 µg/mL [6] [%] | inhibition at 20 µg/mL [7] [%] | inhibition [8] [%]
21 | COc1ccc(/C=C2\CCCC3C2=NN(c2ccc(Br)cc2)C3c2ccc(OC)cc2)cc1 (configuration not stated) | 100 | 5.03 |  |  |  |  |  | 
22 | COc1ccc(/C=C/C(=O)C(C)(C)C(=O)/C=C/c2ccc(OC)cc2)cc1 | 100 | 7.75 |  |  |  |  |  | 
23 | O=C1/C(=C/c2ccc(Cl)cc2)CCC/C1=C\c1ccc(Cl)cc1 | 100 | 0.58 |  |  |  |  |  | 
24 | Oc1ccc(/C=C2\CCCC3C2=NNC3c2ccc(O)cc2)cc1 (configuration not stated) |  | 54.5 | 75 | 76 | 88 | 89 |  | 
25 | COc1cc(/C=C/C(=O)CC(=O)/C=C/c2ccc(O)c(OC)c2)ccc1O [CURCUMIN] |  | 87.6 | 19 | 24 | 51 | 18 |  | 
26 | COc1cc(/C=C2\CCC/C(=C\c3ccc(O)c(OC)c3)C2=O)ccc1O [CYCLOVALONE] |  | 74.2 | 32 | 69 | 58 | 28 |  | 
27 | N#CC1=C(N)OC2=C(CCC/C2=C\c2ccc(Cl)cc2)C1c1ccc(Cl)cc1 (configuration not stated) |  | 1.55 |  |  |  |  |  | 
28 | O=c1[nH]cc(F)c(=O)[nH]1 [FLUOROURACIL] |  |  | 0 | 0 | 0 | 0 |  | 
29 | N#CC1=C(N)OC2=C(CCC/C2=C\c2ccc(O)cc2)C1c1ccc(O)cc1 (configuration not stated) | 100 | 16.7 | 82 | 83 | 79 | 78 |  | 
30 | COc1cc(/C=C/C(=O)C(C)(C)C(=O)/C=C/c2ccc(O)c(OC)c2)ccc1O |  | 52.9 | 55 | 82 | 78 | 47 |  | 
31 | COc1ccc(OC)c(/C=C/C(=O)C(C)(C)C(=O)/C=C/c2cc(OC)ccc2OC)c1 | 100 | 3.68 | 79 | 74 | 80 | 84 |  | 
32 | COc1ccc(/C=C2\CCCC3=C2OC(N)=C(C#N)C3c2ccc(OC)c(OC)c2)cc1OC (configuration not stated) | 100 | 16.9 | 21 | 65 | 12 | 19 |  | 
33 | COc1ccc(OC)c(/C=C2\CCCC3C2=NNC3c2cc(OC)ccc2OC)c1 (configuration not stated) | 100 | 25.6 | 82 | 67 | 100 | 78 |  | 
34 | COc1ccc(OC)c(/C=C2\CCC/C(=C\c3cc(OC)ccc3OC)C2=O)c1 | 100 | 1.16 |  |  |  |  |  | 
35 | COc1ccc(/C=C2\CCCC/C(=C\c3ccc(OC)c(OC)c3)C2=O)cc1OC | 100 | 0.77 |  |  |  |  |  | 
36 | COc1ccc(OC)c(/C=C2\CCCC3C2=NN(c2ccc(Br)cc2)C3c2cc(OC)ccc2OC)c1 (configuration not stated) | 100 | 0.77 |  |  |  |  |  | 
37 | CC(C)(C(=O)/C=C/c1ccccc1)C(=O)/C=C/c1ccccc1 | 100 | 4.84 |  |  |  |  |  | 
38 | COc1ccc(OC)c(/C=C2\CCCC/C(=C\c3cc(OC)ccc3OC)C2=O)c1 | 100 | 5.03 |  |  |  |  |  | 
39 | COc1cc(/C=C2\CCCC3C2=NNC3c2ccc(O)c(OC)c2)ccc1O (configuration not stated) |  | 76.7 | 19 | 12 | 65 | 21 |  | 
